This is an account of results in patent publication US20250114338A1, “TETRAHYDRO-PYRIDO[3,4-b]INDOLE ESTROGEN RECEPTOR MODULATORS AND USES THEREOF” (Genentech, Inc., priority 2014, published 2025).

SMILES strings stand for the structures.

This assay concerns ER-alpha MCF7. The assay can be described thus: ER-alpha MCF7 HCS EC50; stated as measured by in vitro cell proliferation assays of Examples 902 and 903. The class given is cell-based. Conditions: Homo sapiens, MCF7, MCF7 cells; Table 2. The source says:
The CellTiter-Glo® Luminescent Cell Viability Assay is a homogeneous method to determine the number of viable cells in culture based on quantitation of the ATP present, which signals the presence of metabolically active cells. The CellTiter-Glo® Assay is designed for use with multiwell plate formats, making it ideal for automated high-throughput screening (HTS), cell proliferation and cytotoxicity assays. The homogeneous assay procedure involves adding a single reagent (CellTiter-Glo® Reagent) directly to cells cultured in serum-supplemented medium. Cell washing, removal of medium or multiple pipetting steps are not required. The Cell Titer-Glo® Luminescent Cell Viability Assay, including reagents and protocol are commercially available (Promega Corp., Madison, WI, Technical Bulletin TB288).
The assay assesses the ability of compounds to enter cells and inhibit cell proliferation. The assay principle is based on the determination of the number of viable cells present by quantitating the ATP present in a homogenous assay where addition of the Cell Titer-Glo® reagent results in cell lysis and generation of a luminescent signal through the luciferase reaction. The luminescent signal is proportional to the amount of ATP present.
Cell Culture Medium: RPMI or DMEM high glucose, 10% Fetal Bovine Serum, 2 mM L-Glutamine, P/S. Incubate O/N (overnight) at 37° C., 5% CO2.
Day 2—Add Drug to Cells, Compound Dilution, DMSO Plates (serial 1:2 for 9 points). Add 20 μl of compound at 10 mM in the 2nd column of 96 well plate. […] Add 147 μl of Media into all wells. Transfer 3 μl of DMSO+ compound from each well in the DMSO Plate to each corresponding well on Media Plate using Rapidplate® (Caliper, a Perkin-Elmer Co.). For 2 drug combination studies, transfer one drug 1.5 μl of DMSO+ compound from each well in the DMSO Plate to each corresponding well on Media Plate using Rapidplate. Then, transfer another drug 1.5 μl to the medium plate.
Drug Addition to Cells, Cell Plate (1:10 dilution): Add 6 μl of media+ compound directly to cells (54 μl of media on the cells already). Incubate 3 days at 37° C., 5% CO2 in an incubator that will not be opened often.
Day 5—Develop Plates, Thaw Cell Titer Glo Buffer at room temperature: Remove Cell Plates from 37° C. and equilibrate to room temperature for about 30 minutes. Add Cell Titer-Glo® Buffer to Cell Titer-Glo® Substrate (bottle to bottle). Add 30 μl Cell Titer-Glo® Reagent (Promega cat. #G7572) to each well of cells. Place on plate shaker for about 30 minutes. Read luminescence on Analyst HT Plate Reader (half second per well).
Cell viability assays and combination assays: Cells were seeded at 1000-2000 cells/well in 384-well plates for 16 h. On day two, nine serial 1:2 compound dilutions were made in DMSO in a 96 well plate. The compounds were further diluted into growth media using a Rapidplate® robot (Zymark Corp., Hopkinton, MA). The diluted compounds were then added to quadruplicate wells in 384-well cell plates and incubated at 37° C. and 5% CO2. After 4 days, relative numbers of viable cells were measured by luminescence using Cell Titer-Glo® (Promega) according to the manufacturer's instructions and read on a Wallac Multilabel Reader® (PerkinElmer, Foster City). EC50 values were calculated using Prism® 4.0 software (GraphPad, San Diego).
5 ul of each individual compound concentration and each control compound was transferred to the cell plate. Fulvestrant was added to control wells at a final concentration of 100 nM). DMSO was added to negative control wells (0.2% v/v).
A word on the EC50: it is the midpoint of the concentration-response curve. With `C[C@@H]1Cc2c([nH]c3ccccc23)[C@H](c2c(F)cc(OCCN3CC(CF)C3)cc2F)N1CC(F)F` [Example 306, (1S,3R)-2-(2,2-difluoroethyl)-1-[2,6-difluoro-4-[2-[3-(fluoromethyl)azetidin-1-yl]ethoxy]phenyl]-3-methyl-1,3,4,9-tetrahydropyrido[3,4-b]indole], the EC50 was 3 nM.

`C[C@@H]1Cc2c([nH]c3ccccc23)[C@@H](c2c(F)cc(OC3CN(C/C=C/F)C3)cc2F)N1CC(C)(C)F` [Example 308, (1R,3R)-1-[2,6-difluoro-4-[1-[(E)-3-fluoroallyl]azetidin-3-yl]oxy-phenyl]-2-(2-fluoro-2-methyl-propyl)-3-methyl-1,3,4,9-tetrahydropyrido[3,4-b]indole]: the EC50 turned out to be 0.127 nM.

As to `C[C@@H]1Cc2c([nH]c3ccccc23)[C@@H](c2ccc(C(=O)C3CN(CCCF)C3)cc2)N1CC(C)(C)F` [Example 346, [4-[(1R,3R)-2-(2-fluoro-2-methyl-propyl)-3-methyl-1,3,4,9-tetrahydropyrido[3,4-b]indol-1-yl]phenyl]-[1-(3-fluoropropyl)azetidin-3-yl]methanone], the EC50 was found to be 0.399 nM.

Regarding `C[C@@H]1Cc2c([nH]c3ccccc23)[C@@H](c2c(F)cc(OCCN3CC(CF)C3)cc2F)N1C[C@@H](CO)CF` [Example 403, (S)-3-((1R,3R)-1-(2,6-difluoro-4-(2-(3-(fluoromethyl)azetidin-1-yl)ethoxy)phenyl)-3-methyl-3,4-dihydro-1H-pyrido[3,4-b]indol-2(9H)-yl)-2-(fluoromethyl)propan-1-ol], the EC50 is 0.13 nM.

As to `CC(C)(F)CN1[C@@H](CO)Cc2c([nH]c3ccccc23)[C@@H]1c1c(F)cc(OCCN2CC(CF)C2)cc1F` [Example 131, ((1S,3R)-1-(2,6-difluoro-4-(2-(3-(fluoromethyl)azetidin-1-yl)ethoxy)phenyl)-2-(2-fluoro-2-methylpropyl)-2,3,4,9-tetrahydro-1H-pyrido[3,4-b]indol-3-yl)methanol], the 50% effective concentration (EC50) amounted to 0.146 nM.

Take `C[C@@H]1Cc2c([nH]c3ccccc23)[C@@H](c2ccc(OCCN3CC(CF)C3)c(F)c2F)N1CC(C)(C)F` [Example 281, (1R,3R)-1-(2,3-difluoro-4-(2-(3-(fluoromethyl)azetidin-1-yl)ethoxy)phenyl)-2-(2-fluoro-2-methylpropyl)-3-methyl-2,3,4,9-tetrahydro-1H-pyrido[3,4-b]indole]: the EC50 is 0.183 nM.

Turning to `C[C@@H]1Cc2c([nH]c3ccccc23)[C@H](c2c(F)cc(OCCN3CC(CF)C3)cc2F)N1CCC(F)(F)F` [Example 362, (1S,3R)-1-[2,6-difluoro-4-[2-[3-(fluoromethyl)azetidin-1-yl]ethoxy]phenyl]-3-methyl-2-(3,3,3-trifluoropropyl)-1,3,4,9-tetrahydropyrido[3,4-b]indole], the EC50 was above 100 nM.

As for `C[C@H]1Cc2c([nH]c3ccc(F)cc23)[C@H](c2c(F)cc(NC3CN(CCCF)C3)cc2F)N1CC(F)(F)F` [Example 373, N-(3,5-difluoro-4-((1S,3S)-6-fluoro-3-methyl-2-(2,2,2-trifluoroethyl)-2,3,4,9-tetrahydro-1H-pyrido[3,4-b]indol-1-yl)phenyl)-1-(3-fluoropropyl)azetidin-3-amine], the EC50 was determined as 18 nM.

In the case of `C[C@@H]1Cc2c([nH]c3ccccc23)[C@@H](c2c(F)cc(OCCN3CC(C)(CF)C3)cc2F)N1CC(C)(C)F` [Example 160, (1R,3R)-1-[2,6-difluoro-4-[2-[3-(fluoromethyl)-3-methyl-azetidin-1-yl]ethoxy]phenyl]-2-(2-fluoro-2-methyl-propyl)-3-methyl-1,3,4,9-tetrahydropyrido[3,4-b]indole], the 50% effective concentration (EC50) was found to be 0.285 nM.

For the molecule `C[C@@H]1Cc2c([nH]c3ccccc23)[C@@H](c2c(F)cc(NC3CN(CCCF)C3)cc2F)N1CC(F)(F)F` [Example 304, N-(3,5-difluoro-4-((1R,3R)-3-methyl-2-(2,2,2-trifluoroethyl)-2,3,4,9-tetrahydro-1H-pyrido[3,4-b]indol-1-yl)phenyl)-1-(3-fluoropropyl)azetidin-3-amine], the EC50 was 0.224 nM.

As for `C[C@@H]1Cc2c([nH]c3ccccc23)[C@@H](c2c(F)cc(NC3CN(CCCF)C3)cc2F)N1S(C)(=O)=O` [Example 311, N-[3,5-difluoro-4-[(1R,3R)-3-methyl-2-methylsulfonyl-1,3,4,9-tetrahydropyrido[3,4-b]indol-1-yl]phenyl]-1-(3-fluoropropyl)azetidin-3-amine], the EC50 is 0.248 nM.

As for `C[C@@H]1Cc2c([nH]c3ccccc23)[C@@H](c2c(F)cc(OCCN3CC(CF)C3)cc2F)N1C[C@H](C)C(=O)O` [Example 299, (S)-3-((1R,3R)-1-(2,6-difluoro-4-(2-(3-(fluoromethyl)azetidin-1-yl)ethoxy)phenyl)-3-methyl-1,3,4,9-tetrahydro-2H-pyrido[3,4-b]indol-2-yl)-2-methylpropanoic acid], the EC50 was determined as 3 nM.

For `C[C@@H]1Cc2c([nH]c3ccccc23)[C@@H](c2c(F)cc(SC3CN(CCCF)C3)cc2F)N1CC(C)(C)F` [Example 196, (1R,3R)-1-[2,6-difluoro-4-[1-(3-fluoropropyl)azetidin-3-yl]sulfanyl-phenyl]-2-(2-fluoro-2-methyl-propyl)-3-methyl-1,3,4,9-tetrahydropyrido[3,4-b]indole], the EC50 was 0.271 nM.

For the molecule `C[C@@H]1Cc2c([nH]c3ccccc23)[C@@H](c2c(F)cc(OC[C@H](C)N3CC(C(F)F)C3)cc2F)N1CC(C)(C)F` [Example 204, (1R,3R)-1-[4-[(2S)-2-[3-(difluoromethyl)azetidin-1-yl]propoxy]-2,6-difluoro-phenyl]-2-(2-fluoro-2-methyl-propyl)-3-methyl-1,3,4,9-tetrahydropyrido[3,4-b]indole], the concentration giving a half-maximal response (EC50) worked out at 0.371 nM.

On to `C[C@@H]1Cc2c([nH]c3ccccc23)[C@@H](c2c(F)cc(OCCN3CC(CF)C3)cc2F)N1C1CCC1` [Example 134, (1R,3R)-2-cyclobutyl-1-[2,6-difluoro-4-[2-[3-(fluoromethyl)azetidin-1-yl]ethoxy]phenyl]-3-methyl-1,3,4,9-tetrahydropyrido[3,4-b]indole], for which the EC50 stood at 0.542 nM.

Regarding `C[C@H]1Cc2c([nH]c3ccc(F)cc23)[C@@H](c2c(F)cc(NC3CN(CCCF)C3)cc2F)N1C[C@@](C)(F)CO` [Example 434, (R)-3-((1R,3S)-1-(2,6-difluoro-4-((1-(3-fluoropropyl)azetidin-3-yl)amino)phenyl)-6-fluoro-3-methyl-1,3,4,9-tetrahydro-2H-pyrido[3,4-b]indol-2-yl)-2-fluoro-2-methylpropan-1-ol], the half-maximal effective concentration (EC50) was found to be 0.706 nM.

In the case of `C[C@@H]1Cc2c([nH]c3ccccc23)[C@@H](c2c(F)cc(OC3CN(C)C3)cc2F)N1CC(C)(C)F` [Example 161, (1R,3R)-1-[2,6-difluoro-4-(1-methylazetidin-3-yl)oxy-phenyl]-2-(2-fluoro-2-methyl-propyl)-3-methyl-1,3,4,9-tetrahydropyrido[3,4-b]indole], the EC50 came to 0.0413 nM.

Turning to `C[C@@H]1Cc2c([nH]c3ccc(F)cc23)[C@@H](c2c(F)cc(OCCN3CC(CF)C3)cc2F)N1CC(F)(F)CO` [Example 359, 3-((1R,3R)-1-(2,6-difluoro-4-(2-(3-(fluoromethyl)azetidin-1-yl)ethoxy)phenyl)-6-fluoro-3-methyl-1,3,4,9-tetrahydro-2H-pyrido[3,4-b]indol-2-yl)-2,2-difluoropropan-1-ol], the EC50 was found to be 0.552 nM.
